Key:
Assay in all cases: relative viability (nuclei count vs DMSO), 5 days (fraction); higher = more cells survive
Ponatinib + Lapatinib = compound: Cc1ccc(C(=O)Nc2ccc(CN3CCN(C)CC3)c(C(F)(F)F)c2)cc1C#Cc1cnc2cccnn12 [Ponatinib] + CS(=O)(=O)CCNCc1ccc(-c2ccc3ncnc(Nc4ccc(OCc5cccc(F)c5)c(Cl)c4)c3c2)o1 [Lapatinib] (partner 2 µM)
Method in brief: (§1)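 Dosing by pin tool came one day after lung cancer cell lines were seeded in 1536-well plates, using either one drug or a fixed anchor-drug dose plus five library-drug doses (not always all listed) in √10 steps. After 5 days, nuclei were counted on 4× images. Relative viability is treated-well nuclei count divided by vehicle-well nuclei count, and values are medians of duplicate plates.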

Pazopanib + Olaparib = compound: Cc1ccc(Nc2nccc(N(C)c3ccc4c(C)n(C)nc4c3)n2)cc1S(N)(=O)=O [Pazopanib] + O=C(c1cc(Cc2n[nH]c(=O)c3ccccc23)ccc1F)N1CCN(C(=O)C2CC2)CC1 [Olaparib] (partner 8 µM)
Method in brief: as §1

Pazopanib + Crizotinib = compound: Cc1ccc(Nc2nccc(N(C)c3ccc4c(C)n(C)nc4c3)n2)cc1S(N)(=O)=O [Pazopanib] + C[C@@H](Oc1cc(-c2cnn(C3CCNCC3)c2)cnc1N)c1c(Cl)ccc(F)c1Cl [Crizotinib] (partner 1 µM)
Method in brief: as §1

Pazopanib + Decitabine = compound: Cc1ccc(Nc2nccc(N(C)c3ccc4c(C)n(C)nc4c3)n2)cc1S(N)(=O)=O [Pazopanib] + Nc1ncn([C@H]2C[C@H](O)[C@@H](CO)O2)c(=O)n1 [Decitabine] (partner 2 µM)
Method in brief: as §1

| Cell Line | relative viability (Ponatinib + Lapatinib; first compound 0.002 µM) | relative viability (Ponatinib + Lapatinib; first compound 0.006325 µM) | relative viability (Ponatinib + Lapatinib; first compound 0.06325 µM) | relative viability (Ponatinib + Lapatinib; first compound 0.2 µM) | relative viability (Pazopanib + Olaparib; first compound 0.01 µM) | relative viability (Pazopanib + Olaparib; first compound 0.03162 µM) | relative viability (Pazopanib + Olaparib; first compound 0.1 µM) | relative viability (Pazopanib + Olaparib; first compound 0.3162 µM) | relative viability (Pazopanib + Olaparib; first compound 1 µM) | relative viability (Pazopanib + Crizotinib; first compound 0.01 µM) | relative viability (Pazopanib + Crizotinib; first compound 0.03162 µM) | relative viability (Pazopanib + Crizotinib; first compound 0.1 µM) | relative viability (Pazopanib + Crizotinib; first compound 0.3162 µM) | relative viability (Pazopanib + Crizotinib; first compound 1 µM) | relative viability (Pazopanib + Decitabine; first compound 0.01 µM) | relative viability (Pazopanib + Decitabine; first compound 0.03162 µM) | relative viability (Pazopanib + Decitabine; first compound 0.1 µM) | relative viability (Pazopanib + Decitabine; first compound 0.3162 µM) | relative viability (Pazopanib + Decitabine; first compound 1 µM) |
| --- | --- | --- | --- | --- | --- | --- | --- | --- | --- | --- | --- | --- | --- | --- | --- | --- | --- | --- | --- |
| LXF-289 | 0.855 | 0.895 | 0.894 | 0.859 | 1.05 | 1.06 | 1.1 | 1.05 | 1.05 | 0.851 | 0.829 | 0.801 | 0.782 | 0.824 | 0.395 | 0.351 | 0.39 | 0.373 | 0.381 |
| NCI-H23 | 1.03 | 1.02 | 1.31 | 0.985 | 0.315 | 0.343 | 0.297 | 0.321 | 0.36 | 0.594 | 0.474 | 0.577 | 0.735 | 0.591 | 0.308 | 0.309 | 0.341 | 0.376 | 0.335 |
| NCI-H322M | 0.636 | 0.61 | 0.659 | 0.518 | 0.885 | 0.817 | 0.881 | 0.71 | 0.71 | 0.922 | 0.924 | 0.784 | 0.893 | 0.844 | 0.696 | 0.748 | 0.71 | 0.8 | 0.754 |
| NCI-H358 | 0.468 | 0.431 | 0.393 | 0.378 | 0.757 | 0.662 | 0.629 | 0.639 | 0.599 | 0.722 | 0.688 | 0.518 | 0.622 | 0.478 | 0.217 | 0.22 | 0.219 | 0.25 | 0.276 |
| NCI-H460 | 0.942 | 0.853 | 1.08 | 0.876 | 0.51 | 0.413 | 0.572 | 0.406 | 0.409 | 0.931 | 1.15 | 0.849 | 1 | 0.963 | 0.561 | 0.513 | 0.551 | 0.488 | 0.552 |
| NCI-H520 | 0.725 | 0.801 | 0.688 | 0.531 | 0.38 | 0.277 | 0.414 | 0.348 | 0.285 | – | 0.894 | 0.991 | 0.672 | 0.747 | 0.48 | 0.471 | 0.569 | 0.509 | 0.572 |
| NCI-H596 | 1.09 | 0.898 | 0.905 | 0.748 | 0.674 | 0.661 | 0.676 | 0.749 | 0.629 | 0.905 | 1.15 | 1.01 | 0.986 | 0.926 | 0.996 | 1.08 | 1.14 | 1.12 | 0.966 |
| NCI-H647 | 0.99 | 0.995 | 1.11 | 0.811 | 0.717 | 0.714 | 0.803 | 0.486 | 0.474 | 1 | 1.22 | 1.26 | 1.01 | 1.06 | 0.402 | 0.408 | 0.344 | 0.487 | 0.295 |
| NCI-H650 | 0.886 | 0.835 | 0.819 | 0.854 | 0.404 | 0.411 | 0.394 | 0.391 | 0.37 | 0.755 | 0.907 | 0.608 | 0.784 | 0.603 | 0.303 | 0.299 | 0.353 | 0.293 | 0.353 |
| NCI-H661 | 0.437 | 0.523 | 0.592 | 0.361 | 0.781 | 0.782 | 0.792 | 0.691 | 0.71 | 1.13 | 0.976 | 1.03 | 0.998 | 0.987 | 0.498 | 0.576 | 0.578 | 0.598 | 0.596 |
| NCI-H727 | 0.794 | 0.825 | 1.11 | 0.77 | 0.672 | – | 0.595 | 0.612 | 0.629 | 0.98 | 0.787 | 1.15 | 0.831 | 1.08 | 0.724 | – | 0.879 | 0.885 | 1.02 |
| NCI-H838 | 0.911 | 1.04 | 1.03 | 0.813 | 0.745 | 0.843 | 0.776 | 0.816 | 0.82 | 0.821 | 0.951 | 0.982 | 0.912 | 1.08 | 0.458 | 0.462 | 0.507 | 0.414 | 0.523 |
| NCI-H1355 | 0.939 | 0.947 | 1.17 | 1.02 | 0.716 | 0.708 | 0.76 | 0.761 | 0.754 | – | 0.965 | 1.08 | 0.982 | 1.05 | 0.355 | 0.314 | 0.367 | 0.358 | 0.386 |
| NCI-H1437 | 0.742 | 0.848 | 0.885 | 0.758 | 0.644 | 0.645 | 0.649 | 0.653 | 0.551 | 0.936 | 0.935 | 0.953 | 0.807 | 1.05 | 0.541 | 0.611 | 0.626 | 0.602 | 0.567 |
| NCI-H1650 | 0.735 | 0.811 | 0.636 | 0.62 | 0.895 | 0.838 | 0.723 | 0.852 | 0.844 | 1.09 | 1 | 1 | 0.857 | 0.965 | 0.431 | 0.419 | 0.464 | 0.405 | 0.603 |
| NCI-H1651 | 0.724 | 0.955 | 0.896 | 0.756 | 0.18 | 0.192 | 0.176 | 0.202 | 0.188 | 0.809 | 0.775 | 0.822 | 0.853 | 0.924 | 0.543 | 0.644 | 0.644 | 0.552 | 0.656 |
| NCI-H1666 | 0.619 | 0.666 | 0.796 | 0.773 | 0.819 | 0.874 | 0.74 | 0.649 | 0.769 | 1.09 | 1 | 0.875 | 1.09 | 1.27 | 0.703 | 0.716 | 0.636 | 0.76 | 0.765 |
| NCI-H1734 | 0.955 | 0.991 | 1.09 | 0.888 | 0.626 | 0.627 | 0.578 | 0.598 | 0.591 | 0.689 | 0.727 | 0.614 | 0.658 | 0.622 | 0.498 | 0.492 | 0.461 | 0.532 | 0.512 |
| NCI-H1755 | 0.977 | 1.08 | 1.06 | 0.943 | 0.798 | 0.837 | 0.866 | 0.882 | 0.944 | 0.817 | 0.847 | 0.962 | 0.844 | 0.857 | 0.718 | 0.709 | 0.742 | 0.773 | 0.783 |
| NCI-H1792 | 0.854 | 0.85 | 0.92 | 0.847 | – | 0.384 | 0.435 | 0.483 | 0.384 | – | 0.927 | 0.967 | 0.912 | 0.952 | – | 0.549 | 0.456 | 0.621 | 0.524 |
| NCI-H1915 | 0.908 | 0.95 | 0.986 | 1.02 | 0.257 | 0.241 | 0.275 | 0.229 | 0.227 | 0.875 | 0.974 | 0.911 | 0.847 | 0.79 | 0.244 | 0.264 | 0.263 | 0.261 | 0.291 |
| NCI-H1944 | 0.775 | 0.807 | 0.915 | 0.849 | 0.425 | 0.353 | 0.424 | 0.418 | 0.475 | 1.13 | 1.11 | 1.05 | 1.04 | 1.05 | 0.463 | 0.424 | 0.424 | 0.427 | 0.467 |
| NCI-H1975 | 0.811 | 0.817 | 1.14 | 1.03 | 0.76 | 0.829 | 0.775 | 0.785 | 0.756 | 0.888 | 1.02 | 0.991 | 0.964 | 0.926 | 0.374 | 0.373 | 0.394 | 0.401 | 0.374 |
| NCI-H1993 | 0.885 | 0.78 | 0.872 | 0.872 | – | 1.03 | 1.21 | 1.09 | 1.15 | 0.871 | 0.902 | 0.971 | 0.926 | 0.877 | – | 0.493 | 0.607 | 0.678 | 0.59 |
| NCI-H2009 | 0.865 | 0.887 | 1.08 | 0.946 | 0.746 | 0.699 | 0.686 | 0.677 | 0.456 | 1.05 | 1.06 | 1.01 | 1.05 | 0.964 | 0.334 | 0.387 | 0.396 | 0.343 | 0.382 |
| NCI-H2023 | 0.81 | 0.861 | 0.958 | 0.642 | 0.441 | 0.487 | 0.516 | 0.466 | 0.45 | 0.695 | 0.762 | 0.666 | 0.613 | 0.728 | 0.206 | 0.236 | 0.228 | 0.206 | 0.265 |
| NCI-H2085 | 0.733 | 0.815 | 0.843 | 0.879 | 0.821 | 0.759 | 0.796 | 0.704 | 0.713 | 0.952 | 0.968 | 0.911 | 0.919 | 0.935 | 0.573 | 0.508 | 0.555 | 0.602 | 0.581 |
| NCI-H2087 | 0.708 | 0.781 | 0.876 | 0.672 | 0.72 | 0.7 | 0.745 | 0.549 | 0.568 | 0.952 | 0.76 | 1.01 | 0.812 | 0.701 | 0.186 | 0.321 | 0.264 | 0.252 | 0.424 |

From the supplement of paper PMC10307832
